# Test results: patent US20180243298A1, “TRPV3 MODULATORS” (AbbVie Inc., priority 2015, published 2018)
# Biological target: T1, human TRPV3 (Homo sapiens, UniProt Q8NET8)
# T1 construct: expressed in transfected cells; host or cells: HEK293
# T1 sequence (Q8NET8 1-790): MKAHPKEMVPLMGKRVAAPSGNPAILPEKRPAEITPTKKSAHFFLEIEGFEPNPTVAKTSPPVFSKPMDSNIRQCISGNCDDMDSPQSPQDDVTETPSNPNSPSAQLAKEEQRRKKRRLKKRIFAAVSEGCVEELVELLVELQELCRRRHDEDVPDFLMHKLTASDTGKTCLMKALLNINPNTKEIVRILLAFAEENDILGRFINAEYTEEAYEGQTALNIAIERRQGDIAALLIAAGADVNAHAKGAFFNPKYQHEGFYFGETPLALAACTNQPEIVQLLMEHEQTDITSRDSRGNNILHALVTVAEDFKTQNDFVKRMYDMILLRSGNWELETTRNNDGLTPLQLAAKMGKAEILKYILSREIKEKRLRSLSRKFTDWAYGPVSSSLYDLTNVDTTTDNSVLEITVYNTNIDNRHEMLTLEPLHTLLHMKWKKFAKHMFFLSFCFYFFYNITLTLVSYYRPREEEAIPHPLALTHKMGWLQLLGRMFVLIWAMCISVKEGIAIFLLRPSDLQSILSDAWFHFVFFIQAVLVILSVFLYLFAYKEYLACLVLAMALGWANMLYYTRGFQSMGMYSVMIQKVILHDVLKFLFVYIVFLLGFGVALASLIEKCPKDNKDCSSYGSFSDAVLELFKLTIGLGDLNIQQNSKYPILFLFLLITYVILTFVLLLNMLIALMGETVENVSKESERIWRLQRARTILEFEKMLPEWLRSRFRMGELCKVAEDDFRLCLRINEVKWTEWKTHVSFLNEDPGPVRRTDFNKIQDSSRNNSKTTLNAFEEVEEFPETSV
# Test: Calcium flux assay (FLIPR TETRA), recombinant HEK293 cells expressing TRPV3, 2-APB response
# Assay type: cell-based
# Details: 2-APB at its EC80
# Protocol: (i) In Vitro Methods-Calcium Flux Assays:
# Experiments were conducted using the FLIPR TETRA®. On the day prior to the experiment, recombinant HEK293 cells that stably express human and mouse TRPV3 were removed from tissue culture flasks and plated in growth medium at 20,000 cells/well into black-walled clear-bottom 384-well BIOCOAT™ poly-D-lysine assay plates (BD Biosciences, Bedford, Mass.) using a MULTIDROP® dispenser (ThermoScientific, Waltham, Mass.). On the day of the experiment, growth medium was removed, and the no-wash FLIPR® Calcium-4 dye (λEX=470-495 nm, λEM=515-575 nm; Molecular Devices, Sunnyvale, Calif.) was added to each well using the MULTIDROP® dispenser. Cells were incubated for 90-120 minutes in the dark. The compounds were dissolved in DMSO to prepare a 10 mM stock solution. The intensity of the fluorescence was captured and digitally transferred to an interfaced PC. The peak increase in fluorescence over baseline, measured in relative fluorescence units, was calculated and expressed as the percentage of the maximal 2-APB (2-aminoethoxyldiphenyl borate) response (in the absence of compound). The concentration of 2-APB corresponds to its EC80.
row,Structure (SMILES),IC50
1,"COc1ncnc(OC)c1C(=O)Nc1nc(C(F)(F)F)c(-c2cnn(C3CC3)c2)s1 [Example 168, N-[5-(1-cyclopropyl-1H-pyrazol-4-yl)-4-(trifluoromethyl)-1,3-thiazol-2-yl]-4,6-dimethoxypyrimidine-5-carboxamide]",50 to 100 nM
2,"COc1ncnc(OC)c1C(=O)Nc1nc(C(F)(F)F)c(-c2c[nH]c3cc(C#N)ccc23)s1 [Example 44, N-[5-(6-cyano-1H-indol-3-yl)-4-(trifluoromethyl)-1,3-thiazol-2-yl]-4,6-dimethoxypyrimidine-5-carboxamide]",100 to 500 nM
3,"COc1ncnc(OC)c1C(=O)Nc1nc(C(F)(F)F)c(C2CCCO2)s1 (centres unmarked) [Example 144, 4,6-dimethoxy-N-[5-(tetrahydrofuran-2-yl)-4-(trifluoromethyl)-1,3-thiazol-2-yl]pyrimidine-5-carboxamide]",50 to 100 nM
4,"COCc1sc(NC(=O)c2c(OC)ncnc2OC)nc1-c1ccc(C(F)(F)F)cn1 [Example 86, 4,6-dimethoxy-N-{5-(methoxymethyl)-4-[5-(trifluoromethyl)pyridin-2-yl]-1,3-thiazol-2-yl}pyrimidine-5-carboxamide]",< 50 nM
5,"COc1ncnc(OC)c1C(=O)Nc1nc(C(F)(F)F)c(C#CCO)s1 [Example 12, N-[5-(3-hydroxyprop-1-yn-1-yl)-4-(trifluoromethyl)-1,3-thiazol-2-yl]-4,6-dimethoxypyrimidine-5-carboxamide]",100 to 500 nM
6,"COc1ncnc(OC)c1C(=O)Nc1nc(C2CCC2)c(F)s1 [Example 101, N-(4-cyclobutyl-5-fluoro-1,3-thiazol-2-yl)-4,6-dimethoxypyrimidine-5-carboxamide]",50 to 100 nM
7,"COc1ncnc(OC)c1C(=O)Nc1nc(C(F)(F)F)c(C2=CCC(C#N)CC2)s1 (centres unmarked) [Example 164, N-[5-(4-cyanocyclohex-1-en-1-yl)-4-(trifluoromethyl)-1,3-thiazol-2-yl]-4,6-dimethoxypyrimidine-5-carboxamide]",100 to 500 nM
8,"COc1ncnc(OC)c1C(=O)Nc1nc(C(F)(F)F)c(-c2ccc(C3(C#N)CC3)cn2)s1 [Example 157, N-{5-[5-(1-cyanocyclopropyl)pyridin-2-yl]-4-(trifluoromethyl)-1,3-thiazol-2-yl}-4,6-dimethoxypyrimidine-5-carboxamide]",50 to 100 nM
9,"COc1nc(C#N)nc(C(F)(F)F)c1C(=O)Nc1nc(C(F)(F)F)c(I)s1 [Example 161, 2-cyano-N-[5-iodo-4-(trifluoromethyl)-1,3-thiazol-2-yl]-4-methoxy-6-(trifluoromethyl)pyrimidine-5-carboxamide]",100 to 500 nM
10,"COc1ncnc(OC)c1C(=O)Nc1nc(C(F)(F)F)c(CN2CCOCC2)s1 [Example 50, 4,6-dimethoxy-N-[5-(morpholin-4-ylmethyl)-4-(trifluoromethyl)-1,3-thiazol-2-yl]pyrimidine-5-carboxamide]",> 1000 nM
11,"COc1ncnc(OC)c1C(=O)Nc1nc(C(F)(F)F)c(-c2cnco2)s1 [Example 140, 4,6-dimethoxy-N-[5-(1,3-oxazol-5-yl)-4-(trifluoromethyl)-1,3-thiazol-2-yl]pyrimidine-5-carboxamide]",50 to 100 nM
12,"COc1ncnc(OC)c1C(=O)Nc1nc(C(F)(F)F)c(-c2ccc(N3CCOCC3)nc2)s1 [Example 23, 4,6-dimethoxy-N-{5-[6-(morpholin-4-yl)pyridin-3-yl]-4-(trifluoromethyl)-1,3-thiazol-2-yl}pyrimidine-5-carboxamide]",100 to 500 nM
13,"COc1ncnc(OC)c1C(=O)Nc1nc(C(F)(F)F)c(-c2ccncc2C#N)s1 [Example 24, N-[5-(3-cyanopyridin-4-yl)-4-(trifluoromethyl)-1,3-thiazol-2-yl]-4,6-dimethoxypyrimidine-5-carboxamide]",100 to 500 nM
14,"COc1ncnc(OC)c1C(=O)Nc1nc(C2CCCC2)cs1 [Example 98, N-(4-cyclopentyl-1,3-thiazol-2-yl)-4,6-dimethoxypyrimidine-5-carboxamide]",100 to 500 nM
